In US9168243B2, “Pharmaceutical compositions comprising 8-substituted dibenzylbutyrolactone lignans” (priority 2010, dated 2015):

Columns and labels:
Type in all cases: cell-based
[1] = system: insulin receptor (IR) β-subunit and IGF-I receptor (IGF-IR) β-subunit; experiment: Immunoprecipitation of IRβ and IGF-IRβ after insulin or IGF-I stimulation, Western blot for phospho-tyrosine and PI3K p85α; conditions: serum-starved LNCaP; 40-100 μM NTG 2 hours before 10 nM insulin or IGF-I, 10 minutes
Method: The cells were treated with 0-100 μM lignans or solvent control for indicated times. Human recombinant isoleucin-zipper TRAIL (izTRAIL; kindly provided by Professor Henning Walczak) was used at 0-1 μg/ml with an incubation time of 20 hours. Prior to 10 minutes treatment with 10 nM IGF-1 (Millipore) or 10 nM insulin (Sigma) the cells were serum-starved (1% FCS) overnight. EGFR stimulation was performed on serum-starved cells with 20 ng/ml EGF for 5 minutes (a kind gift from Professor Klaus Elenius laboratory).
The cells cultured on […] were placed on ice and rinsed with cold PBS. The cells were lysed in 1 ml of cold lysis buffer (50 mM Tris pH 7.4, 150 mM NaCl, 1 mM EDTA, 1.25% CHAPS, 1 mM Na3OV4, 2 mM NaF, 10 mM sodium pyrophosphate and complete protease inhibitor cocktail [Roche Applied Science]) for 10 minutes. […]
To further investigate the specificity of this inhibitory effect, LNCaP cells were serum-starved overnight, treated with 0-100 μM NTG for 2 hours, and activated for 10 minutes with 10 nM insulin or IGF-I, after which insulin receptor (IR) β-subunit and IGF-I receptor (IGF-IR) β-subunit were immunoprecipitated (FIG. 5B). The precipitated complexes were analyzed by Western blotting for presence of PI3K p85α (85 kDa), IRβ (95 kDa), IGF-IRβ (95 kDa) and phospho-tyrosine and the expression of PI3K p85α, Akt and phospho-Akt(ser473) was probed from the lysates. […]

Akt = experiment: Confocal microscopy of Akt localization; conditions: androgen-deprived LNCaP; 100 μM NTG, 2 hours
Method: After treatments, the cells cultured on coverslips were washed with PBS and fixed with 3% paraformaldehyde for 15 minutes at room temperature. The samples were permeabilized and blocked for one hour in 3% BSA 0.1% Tween in PBS. Akt was labeled with rabbit anti-Akt antibody (Cell signaling) and Alexa 546-conjugated anti-rabbit secondary antibody (Molecular Probes). After washing with PBS, the samples were mounted with DAPI Vectashield (Vector Laboratories) and viewed by Zeiss LSM 510 META laser-scanning confocal microscope (63× oil objective, 543 nm excitation).
LNCaP cells (+/−1 nM androgen) were treated with 0-100 μM enterolactone (ENL), matairesinol (MAT) or NTG for 1 hour prior to preparation of total cell lysates (FIG. 4A). The relative decrease in pAkt/Akt ratio was quantified from western blot analysis with Akt (60 kDa) and phospho-Akt(ser473) (Mean±SEM; n=4; Student's t-test *p<0.05, **p<0.01). Alternatively, androgen-deprived LNCaP cells were incubated with 100 μM NTG for 2 hours, fixed and labeled with Akt antibody followed by Alexa 546-conjugated secondary antibody. The samples were viewed at LSM 510 confocal microscope (63× oil objective, 543 nm excitation) (FIG. 4B). […] The western blot analysis with Akt, phospho-Akt(ser473), GSK-3β and phospho-GSK-3β(ser9) was quantified. […]

LNCaP cells = experiment: Clonogenic assay; conditions: 11 days
Method: Five hundred LNCaP cells were plated in 1 ml of culture medium and let to adhere prior to addition of the indicated treatments. After 11 days of incubation, cell colonies were fixed with glutaraldehyde (6.0% v/v), stained with crystal violet (0.5% w/v) and imaged using a digital camera.
To investigate the effects of NTG alone and in combination with TRAIL on colony formation ability, the LNCaP cells were plated in low confluency and treated for 11 days.

In the case of `COc1cc(CC2COC(=O)C2(O)Cc2ccc(O)c(OC)c2)ccc1O` (centres unmarked) [NTG, Nortrachelogenin], the “amount of receptor-associated PI3K p85” value [1] is reported as “clearly reduced”, the “receptor tyrosine phosphorylation of IR and IGF-IR” value [1] is reported as “decreased” and the “cellular localization of Akt” value (Akt) is reported as “increases cytoplasmic localization of Akt”. The “colony formation ability, single agent” value (LNCaP cells; 10 ng/ml TRAIL or 40 μM NTG alone) was “clearly inhibited the growth of the plated cells” and the “colony formation ability, NTG and TRAIL in combination” value (LNCaP cells; 40 μM NTG and 10 ng/ml TRAIL) was “significant death of the cells that were seeded”.
